From the supplement of paper PMC10307832

Tests used:
Experiment in all cases: relative viability (nuclei count vs DMSO), 5 days (fraction); higher = more cells survive
NCI-H1666 = tested on: NCI-H1666
Procedure, shortened: (§1)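 A single step with final 0.05% Triton X-100, 1% formaldehyde and 1 ug/ml Hoechst fixed the cells and stained nuclei 5 days after treatment. Lung cancer cell lines in 1536-well plates had been treated by pin tool the day after seeding with one drug alone or a fixed anchor-drug dose plus five library-drug doses (not always all listed) in √10 steps, and nuclei were counted on 4× images. Relative viability is the ratio of nuclei in treated wells to nuclei in vehicle wells, taken as the median of duplicate plates.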

NCI-H1650 = tested on: NCI-H1650
Procedure, shortened: as §1

NCI-H2170 = tested on: NCI-H2170
Procedure, shortened: as §1

SW 900 = tested on: SW 900
Procedure, shortened: as §1

EKVX = tested on: EKVX
Procedure, shortened: as §1

PC-14 = tested on: PC-14
Procedure, shortened: as §1

HCC-366 = tested on: HCC-366
Procedure, shortened: as §1

CAL-12T = tested on: CAL-12T
Procedure, shortened: as §1

NCI-H727 = tested on: NCI-H727
Procedure, shortened: as §1

NCI-H441 = tested on: NCI-H441
Procedure, shortened: as §1

ABC-1 = tested on: ABC-1
Procedure, shortened: as §1

NCI-H460 = tested on: NCI-H460
Procedure, shortened: as §1

NCI-H661 = tested on: NCI-H661
Procedure, shortened: as §1

NCI-H1437 = tested on: NCI-H1437
Procedure, shortened: as §1

LK-2 = tested on: LK-2
Procedure, shortened: as §1

HARA = tested on: HARA
Procedure, shortened: as §1

201T = tested on: 201T
Procedure, shortened: as §1

NCI-H3122 = tested on: NCI-H3122
Procedure, shortened: as §1

COR-L 105 = tested on: COR-L 105
Procedure, shortened: as §1

BEN = tested on: BEN
Procedure, shortened: as §1

NCI-H2009 = tested on: NCI-H2009
Procedure, shortened: as §1

LOU-NH91 = tested on: LOU-NH91
Procedure, shortened: as §1

Structure (SMILES): CC(=O)O[C@@]12CO[C@@H]1C[C@H](O)[C@@]1(C)C(=O)[C@H](O)C3=C(C)[C@@H](OC(=O)[C@H](O)[C@@H](NC(=O)OC(C)(C)C)c4ccccc4)C[C@@](O)([C@@H](OC(=O)c4ccccc4)[C@H]21)C3(C)C [Docetaxel] + COc1cc2c(Oc3ccc(NC(=O)C4(C(=O)Nc5ccc(F)cc5)CC4)cc3F)ccnc2cc1OCCCN1CCOCC1 [Foretinib] (partner 0.25 µM)
- relative viability (NCI-H1666; first compound 0.0002 µM): 0.853
- relative viability (NCI-H1666; first compound 0.000632 µM): 0.628
- relative viability (NCI-H1666; first compound 0.002 µM): 0.633
- relative viability (NCI-H1666; first compound 0.006325 µM): 0.614
- relative viability (NCI-H1666; first compound 0.02 µM): 0.372
- relative viability (NCI-H1650; first compound 0.0002 µM): 1.07
- relative viability (NCI-H1650; first compound 0.000632 µM): 0.598
- relative viability (NCI-H1650; first compound 0.006325 µM): 0.213
- relative viability (NCI-H1650; first compound 0.02 µM): 0.204
- relative viability (NCI-H2170; first compound 0.0002 µM): 0.995
- relative viability (NCI-H2170; first compound 0.000632 µM): 0.962
- relative viability (NCI-H2170; first compound 0.002 µM): 0.754
- relative viability (NCI-H2170; first compound 0.006325 µM): 0.232
- relative viability (NCI-H2170; first compound 0.02 µM): 0.203
- relative viability (SW 900; first compound 0.0002 µM): 0.816
- relative viability (SW 900; first compound 0.000632 µM): 0.407
- relative viability (SW 900; first compound 0.002 µM): 0.249
- relative viability (SW 900; first compound 0.006325 µM): 0.247
- relative viability (SW 900; first compound 0.02 µM): 0.175
- relative viability (EKVX; first compound 0.0002 µM): 1.07
- relative viability (EKVX; first compound 0.000632 µM): 0.887
- relative viability (EKVX; first compound 0.002 µM): 0.411
- relative viability (EKVX; first compound 0.006325 µM): 0.234
- relative viability (EKVX; first compound 0.02 µM): 0.13
- relative viability (PC-14; first compound 0.0002 µM): 0.886
- relative viability (PC-14; first compound 0.000632 µM): 1.03
- relative viability (PC-14; first compound 0.002 µM): 0.576
- relative viability (PC-14; first compound 0.006325 µM): 0.117
- relative viability (PC-14; first compound 0.02 µM): 0.0977
- relative viability (HCC-366; first compound 0.0002 µM): 0.85
- relative viability (HCC-366; first compound 0.000632 µM): 0.122
- relative viability (HCC-366; first compound 0.002 µM): 0.201
- relative viability (HCC-366; first compound 0.006325 µM): 0.0376
- relative viability (HCC-366; first compound 0.02 µM): 0.0329
- relative viability (CAL-12T; first compound 0.0002 µM): 0.979
- relative viability (CAL-12T; first compound 0.000632 µM): 0.729
- relative viability (CAL-12T; first compound 0.002 µM): 0.238
- relative viability (CAL-12T; first compound 0.006325 µM): 0.216
- relative viability (CAL-12T; first compound 0.02 µM): 0.163
- relative viability (NCI-H727; first compound 0.0002 µM): 0.834
- relative viability (NCI-H727; first compound 0.000632 µM): 0.693
- relative viability (NCI-H727; first compound 0.002 µM): 0.788
- relative viability (NCI-H727; first compound 0.006325 µM): 0.507
- relative viability (NCI-H727; first compound 0.02 µM): 0.346
- relative viability (NCI-H441; first compound 0.0002 µM): 1.12
- relative viability (NCI-H441; first compound 0.000632 µM): 0.725
- relative viability (NCI-H441; first compound 0.002 µM): 0.538
- relative viability (NCI-H441; first compound 0.006325 µM): 0.87
- relative viability (ABC-1; first compound 0.0002 µM): 1.16
- relative viability (ABC-1; first compound 0.000632 µM): 1.18
- relative viability (ABC-1; first compound 0.002 µM): 0.333
- relative viability (ABC-1; first compound 0.006325 µM): 0.351
- relative viability (ABC-1; first compound 0.02 µM): 0.216
- relative viability (NCI-H460; first compound 0.0002 µM): 0.952
- relative viability (NCI-H460; first compound 0.000632 µM): 0.933
- relative viability (NCI-H460; first compound 0.002 µM): 0.184
- relative viability (NCI-H460; first compound 0.006325 µM): 0.0294
- relative viability (NCI-H460; first compound 0.02 µM): 0.022
- relative viability (NCI-H661; first compound 0.0002 µM): 0.989
- relative viability (NCI-H661; first compound 0.000632 µM): 1.02
- relative viability (NCI-H661; first compound 0.002 µM): 0.982
- relative viability (NCI-H661; first compound 0.006325 µM): 0.509
- relative viability (NCI-H661; first compound 0.02 µM): 0.496
- relative viability (NCI-H1437; first compound 0.0002 µM): 1.12
- relative viability (NCI-H1437; first compound 0.000632 µM): 1.21
- relative viability (NCI-H1437; first compound 0.002 µM): 0.351
- relative viability (NCI-H1437; first compound 0.006325 µM): 0.273
- relative viability (NCI-H1437; first compound 0.02 µM): 0.188
- relative viability (LK-2; first compound 0.0002 µM): 1.02
- relative viability (LK-2; first compound 0.000632 µM): 0.948
- relative viability (LK-2; first compound 0.002 µM): 0.348
- relative viability (LK-2; first compound 0.006325 µM): 0.188
- relative viability (LK-2; first compound 0.02 µM): 0.14
- relative viability (HARA; first compound 0.0002 µM): 0.709
- relative viability (HARA; first compound 0.000632 µM): 0.128
- relative viability (HARA; first compound 0.002 µM): 0.146
- relative viability (HARA; first compound 0.006325 µM): 0.0748
- relative viability (HARA; first compound 0.02 µM): 0.0559
- relative viability (201T; first compound 0.0002 µM): 1.15
- relative viability (201T; first compound 0.000632 µM): 0.712
- relative viability (201T; first compound 0.002 µM): 0.473
- relative viability (201T; first compound 0.006325 µM): 0.29
- relative viability (201T; first compound 0.02 µM): 0.213
- relative viability (NCI-H3122; first compound 0.0002 µM): 0.993
- relative viability (NCI-H3122; first compound 0.000632 µM): 0.901
- relative viability (NCI-H3122; first compound 0.002 µM): 0.761
- relative viability (NCI-H3122; first compound 0.006325 µM): 0.16
- relative viability (NCI-H3122; first compound 0.02 µM): 0.106
- relative viability (COR-L 105; first compound 0.0002 µM): 0.986
- relative viability (COR-L 105; first compound 0.000632 µM): 0.95
- relative viability (COR-L 105; first compound 0.002 µM): 0.487
- relative viability (COR-L 105; first compound 0.006325 µM): 0.475
- relative viability (COR-L 105; first compound 0.02 µM): 0.331
- relative viability (BEN; first compound 0.0002 µM): 0.625
- relative viability (BEN; first compound 0.000632 µM): 0.926
- relative viability (BEN; first compound 0.002 µM): 0.606
- relative viability (BEN; first compound 0.006325 µM): 0.285
- relative viability (BEN; first compound 0.02 µM): 0.197
- relative viability (NCI-H2009; first compound 0.0002 µM): 1.18
- relative viability (NCI-H2009; first compound 0.000632 µM): 1.26
- relative viability (NCI-H2009; first compound 0.002 µM): 0.952
- relative viability (NCI-H2009; first compound 0.006325 µM): 0.467
- relative viability (NCI-H2009; first compound 0.02 µM): 0.304
- relative viability (LOU-NH91; first compound 0.0002 µM): 0.936
- relative viability (LOU-NH91; first compound 0.000632 µM): 0.864
- relative viability (LOU-NH91; first compound 0.002 µM): 0.564
- relative viability (LOU-NH91; first compound 0.006325 µM): 0.334
- relative viability (LOU-NH91; first compound 0.02 µM): 0.284
